From US11667636B2, “Modulators of Mas-related G-protein receptor X2 and related products and methods” (Escient Pharmaceuticals, Inc., priority 2020, dated 2023)

Tests used:
human MRGPRX2 = target: T1, human MRGPRX2 (Homo sapiens, UniProt Q96LB1); assay: MRGPRX2 Activity: IP-One HTRF antagonist assay in CHO cells stably expressing human MRGPRX2, versus Cortistatin-14; format: cell-based; conditions: versus 0.3 uM Cortistatin-14 agonist, IP-1 HTRF, read-out: MRGPR2 Antagonist Activity
T1 construct: expressed in transfected cells
T1 sequence (Q96LB1 1-330): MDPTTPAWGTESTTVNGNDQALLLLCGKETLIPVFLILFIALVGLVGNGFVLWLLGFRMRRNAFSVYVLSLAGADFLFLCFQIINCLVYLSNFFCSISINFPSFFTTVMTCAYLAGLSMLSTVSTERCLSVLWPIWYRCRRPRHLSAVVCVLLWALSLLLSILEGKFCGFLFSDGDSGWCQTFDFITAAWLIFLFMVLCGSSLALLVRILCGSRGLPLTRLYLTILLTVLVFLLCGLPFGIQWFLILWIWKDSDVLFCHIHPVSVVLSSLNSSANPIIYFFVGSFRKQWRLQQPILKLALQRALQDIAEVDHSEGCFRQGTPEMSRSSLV
Procedure: CHO cells stably transfected to express human MRGPRX2 were maintained in an incubator at 37° C. with 5% CO2 and grown in F12 (HAM) media with 10% fetal bovine serum (FBS), 1% Glutamax, 1% penicillin/streptomycin, 800 μg/mL Geneticin (G418), and 300 μg/mL Hygromycin B. Cells were plated in a 384-well assay plate at 20,000 cells per well in 12 μL of Opti-MEM and kept in an incubator overnight. On the day of the assay, compounds solubilized at 10 mM in DMSO were added as a 10-point curve (30 uM final top concentration with 1:3 serial dilutions) using a Tecan D300E digital dispenser. Agonists were diluted in assay buffer (final concentrations of 5.7 mM Tris-HCl, 43 mM NaCl, 50 mM LiCl, pH=8) and 2 μL of the agonist Cortistatin-14 (CPC Scientific, catalog CORT-002) are added to each well. Final concentrations of agonists were 0.3 μM Cortistatin-14. Final concentrations of DMSO were kept consistent across the plate. Plates were incubated in the dark for 1 hr at 37° C. and then for 1 hr at room temperature. IP-1 standards and HTRF detection reagents were added according to the IP-One-Gq Kit purchased from Cisbio (part number 62IPAPEJ) and incubated in the dark for 1 hr at room temperature. The plate was read on a Molecular Devices SpectraMax iD5 plate reader. The HTRF ratio was calculated from the raw data and graphed using GraphPad Prism to calculate an IC50 value for each compound.
The activity ranges are denoted as follows: “+++++” denotes antagonist activity <50 nM; “++++” denotes antagonist activity between 51 and 100 nM; “+++” denotes activity between 101 and 500 nM; “++” denotes activity between 501 and 1000 nM; and “+” denotes activity >1000 nM

Human LAD2 cells = assay: Mast Cell Beta-Hexosaminidase Release Assay (Cortistatin-14 induced degranulation); format: cell-based; conditions: 500 nM Cortistatin-14, percent beta-hexosaminidase release, read-out: MRGPRX2 Antagonist Activity
Procedure: Human LAD2 cells (NIH) were maintained in an incubator at 37° C. with 5% CO2 and cultured in StemPro-34 serum-free media (Gibco 10639011) supplemented with 2 mM L-glutamine, 100 U/ml penicillin, […] streptomycin and 100 ng/ml SCF (Invitrogen PEP0860), at a concentration of 2-5×10^5 cells/mL, with hemidepletion every 1-2 weeks.
Cells were transferred to SCF-Free medium at 2.5×10^5 cells/mL and kept in an incubator overnight. On the day of the assay, cells were washed twice in Assay Buffer (final concentrations 10 mM HEPES, 137 mM NaCl, 5.6 mM D-glucose, 2.7 mM KCl, 1 mM MgCl, 1.8 mM CalCl2, 0.4 mM Na2HPO4.7H2O, 0.04% BSA, pH=7.4) and plated in a 96-well v-bottom plate at 20,000 cells per well in 80 μL Assay Buffer. Antagonist compounds solubilized at 10 mM in DMSO were diluted in Assay Buffer to 10× final desired concentrations as a 10-point curve (10 μM final top concentration with 1:3 serial dilutions) and 10 μL added per well. Plates were then incubated for 1 hour at 37° C. Agonists were diluted in Assay Buffer to 10× desired concentrations and 10 μL of the appropriate agonist added to each well. The final concentration of Cortistatin-14 (Tocris 3374) used in antagonist assays was 500 nM. Final concentrations of DMSO were kept consistent across the plate. Plates were then incubated in a warm air oven for 30 minutes at 37° C., followed by centrifugation at 4° C. for 5 minutes at 450×g. 50 μL supernatant from each well was then transferred to a 96-well flat bottom plate containing 100 μL substrate solution per well (3.5 mg/mL p-Nitrophenyl-N-acetyl-$-D-glucosaminide (Sigma 487052) in Citrate Buffer containing a final concentration of 40 mM Citric Acid, 20 mM Na2HPO4.7H2O, pH=4.5). To the cell pellets left in the remaining assay buffer, 150 μL 0.1% Triton-X-100 was then added to each well, resuspended by pipetting up and down, and 50 μL cell lysates transferred to a second 96-well flat bottom plate containing 100 μL substrate solution per well. Plates containing transferred supernatant and cell lysates were then incubated in a warm air oven for 90 minutes at 37° C. After incubation, 50 μL of 400 mM Glycine buffer (pH 10.7) was added into each well and the plate was read on a Molecular Devices SpectraMax iD5 plate reader (absorbance at 405 nm with reference filter at 620 nm). After background subtraction, the percentage degranulation (percent beta-hexosaminidase release) was calculated as 100×(supernatant values)/(supernatant+lysate values), followed by analysis using GraphPad Prism software to calculate an IC50 value for each compound.
The activity ranges are denoted as follows: “+++++” denotes antagonist activity <50 nM; “++++” denotes antagonist activity between 51 and 100 nM; “+++” denotes activity between 101 and 500 nM; “++” denotes activity between 501 and 1000 nM; and “+” denotes activity >1000 nM.

IC50 (human MRGPRX2) [nM]	IC50 (Human LAD2 cells) [nM]	SMILES
< 50	< 50	O=C(N[C@H]1CC[C@@H](Nc2cccc3nc(C(F)F)cn23)CC1)c1ccccc1NCC(F)(F)F [2-143]
< 50	< 50	O=C(N[C@H]1CC[C@@H](Nc2cccc3nc(C(F)(F)F)cn23)CC1)c1cccc2c(F)n[nH]c12 [2-153]
< 50	< 50	O=C(N[C@H]1CC[C@@H](Nc2cccc3nc(C(F)(F)F)cn23)CC1)c1cccc(NCC(F)F)c1 [2-178]
–	< 50	O=C(N[C@H]1CC[C@@H](Nc2cccc3nc(C(F)F)cn23)CC1)c1ccccc1NCCF [2-222]
< 50	< 50	COc1ccc(C(=O)N[C@H]2CC[C@@H](Nc3cccc4nc(C(F)(F)F)cn34)CC2)cc1 [1-1]
< 50	< 50	O=C(N[C@H]1CC[C@@H](Nc2cccc3nc(C(F)F)cn23)CC1)c1ccccc1NCC(F)F [2-142]
< 50	< 50	COc1ccc(C(=O)N[C@H]2CC[C@@H](Nc3cccc4nc(C(F)F)cn34)CC2)c(NCC(F)(F)F)c1 [2-28]
101 to 500	< 50	O=C(N[C@H]1CC[C@@H](Nc2cccc3sc(C(F)(F)F)cc23)CC1)c1ccc(F)cc1 [Example 1, 4-fluoro-N-((1s,4s)-4-((2-(trifluoromethyl)benzo[b]thiophen-4-yl)amino)cyclohexyl) benzamide]
–	< 50	O=C(N[C@H]1CC[C@@H](Nc2cccc3nc(C(F)(F)F)cn23)CC1)c1cccc2cnsc12 [2-52]
< 50	< 50	O=C(N[C@H]1CC[C@@H](Nc2cccc3nc(C(F)F)cn23)CC1)c1ccnc2[nH]ccc12 [2-24]
–	< 50	O=C(N[C@H]1CC[C@@H](Nc2cccc3nc(C(F)F)cn23)CC1)c1ccc(NCC(F)F)cc1 [2-61]
< 50	< 50	Cn1cc(C(=O)N[C@H]2CC[C@@H](Nc3cccc4nc(C(F)(F)F)cn34)CC2)c(Cl)n1 [2-137]
< 50	< 50	O=C(N[C@H]1CC[C@@H](Nc2cccc3nc(C(F)(F)F)cn23)CC1)c1cn(C(F)F)nc1C(F)F [2-228]
< 50	< 50	Cn1cc(C(=O)N[C@H]2CC[C@@H](Nc3cccc4nc(C(F)(F)F)cn34)CC2)c2ccccc21 [2-160]
< 50	< 50	O=C(N[C@H]1CC[C@@H](Nc2cccc3nc(C(F)(F)F)cn23)CC1)c1cccc2cn[nH]c12 [2-10]
101 to 500	–	COc1ccc(C(=O)N[C@H]2CC[C@@H](Nc3cccc4nc(C(F)F)cn34)CC2)c(F)c1 [2-27]
< 50	–	Cc1nc2cccc(C(=O)N[C@H]3CC[C@@H](Nc4cccc5nc(C(F)(F)F)cn45)CC3)c2s1 [2-169]
51 to 100	< 50	CS(=O)(=O)Nc1cccc(C(=O)N[C@H]2CC[C@@H](Nc3cccc4sc(C(F)(F)F)cc34)CC2)c1 [2-6]
51 to 100	–	CN(C)c1ccc(C(=O)N[C@H]2CC[C@@H](Nc3cccc4nc(C(F)(F)F)cn34)CC2)c(F)c1 [2-159]
51 to 100	–	O=C(N[C@H]1CC[C@@H](Nc2cccc3nc(C(F)F)cn23)CC1)c1ccc(C(F)F)cc1 [2-285]
–	< 50	CNc1ccccc1C(=O)N[C@H]1CC[C@@H](Nc2cccc3nc(C(F)(F)F)cn23)CC1 [2-71]
